Test results as given in PubChem BioAssay (NCI).
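48-hour exposure; five concentrations; linearly interpolated endpoints. At the GI50, growth is halved. The concentration for full growth arrest is given as TGI.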

Legend:
Assay in all cases: DTP human tumour cell line panel, 48 h
[1] = test system: A498 renal
[2] = test system: EKVX NSCLC
[3] = test system: IGROV1 ovarian
[4] = test system: LOX IMVI melanoma
[5] = test system: OVCAR-4 ovarian
[6] = test system: RXF 393 renal
[7] = test system: SF-539 CNS
[8] = test system: SN12C renal
[9] = test system: UO-31 renal
[10] = test system: SR leukemia
[11] = test system: MDA-MB-231 breast

COc1cccc2c1C(=O)c1c(O)c3c(c(O)c1C2=O)CC(O)(C(C)=O)CC3O (centres undefined)
TGI [1]: 17.2 µM | TGI [2]: 20.6 µM | TGI [3]: 29.7 µM | TGI [4]: 8.7 µM | TGI [5]: 19.6 µM | TGI [6]: 18.5 µM | TGI [7]: 21.3 µM | TGI [8]: 29.4 µM | TGI [9]: 28.8 µM

O=c1[nH]c(-c2ccc(Cl)cc2)cc2ccsc12
TGI [2]: > 100 µM | TGI [3]: > 100 µM | TGI [4]: > 100 µM | TGI [5]: > 100 µM | TGI [6]: > 100 µM | TGI [8]: > 100 µM | TGI [10]: 12.9 µM | TGI [9]: > 100 µM

CCOC(=O)C1=C(C)N(c2ccc(Cl)cc2)C2(O)C=CC(Nc3ccc(Cl)cc3)=C3C(=O)N(c4ccccc4)C(=O)C312 (centres undefined)
TGI [1]: 9.33 µM | TGI [3]: 21.9 µM | TGI [4]: 4.36 µM | TGI [11]: 35.2 µM | TGI [5]: 15.1 µM | TGI [7]: 18.3 µM | TGI [8]: 13.4 µM | TGI [10]: > 100 µM | TGI [9]: 20.3 µM

CN1CCN(Cn2nc(-c3cc(F)c(Cl)cc3Cl)oc2=S)CC1
GI50 [2]: > 100 µM | TGI [2]: > 100 µM | GI50 [3]: 37.1 µM | TGI [3]: > 100 µM | GI50 [4]: 20.3 µM | TGI [4]: 45.6 µM | GI50 [11]: 17.8 µM | TGI [11]: 62.5 µM | GI50 [5]: 30.9 µM | TGI [5]: > 100 µM | GI50 [6]: 32.5 µM | TGI [6]: 93.8 µM | GI50 [7]: 29.9 µM | TGI [7]: 71.5 µM | GI50 [8]: 28.3 µM | TGI [8]: > 100 µM | GI50 [9]: 74.1 µM | TGI [9]: > 100 µM
